Holding throughout (format): in vivo
Experiment [1] deals with Mycosphaerella graminicola; Anamorph: Septoria tritici. Kind of experiment: Leaf blotch of wheat (SEPTTR) fungicidal activity on wheat seedlings. Particulars: Zymoseptoria tritici. The method, boiled down:
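Compounds in acetone were diluted with nine volumes of water containing 110 ppm Triton X-100 and sprayed to run-off on Yuma wheat seedlings at first-leaf stage. Septoria tritici spores were inoculated before or after treatment, followed by dew chambers at 100% RH and 20 °C, then greenhouse at 20 °C. Severity (0–100%) was scored once untreated plants were fully diseased; control was calculated relative to untreated plants.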

Experiment [2] deals with Puccinia triticina. As to the kind of experiment: Wheat brown rust (PUCCRT) fungicidal activity on wheat seedlings. The method, boiled down: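 Compounds in acetone diluted with nine volumes water containing 110 ppm Triton X-100, sprayed to run-off on first-leaf Yuma wheat seedlings inoculated with P. triticina spores before or after treatment. Dark dew room 22° C, 100% RH overnight, then greenhouse 24° C; percent disease control from severity (0-100%) relative to untreated plants.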

Experiment [3] has as its system Venturia inaequalis. As to the kind of experiment: Apple scab (VENTIN) fungicidal activity. The settings on record: 24 h, 1 Day Protectant, read-out: Disease Control VENTIN 1DP. The protocol:
Technical grades of materials were dissolved in acetone, which were then mixed with nine volumes of water containing 110 ppm Triton X-100. The fungicide solutions were applied onto wheat seedlings using an automated booth sprayer to run-off. All sprayed plants were allowed to air dry prior to further handling. Wheat plants (variety Yuma) were grown from seed in a greenhouse in 50% mineral soil/50% soil-less Metro mix until the first leaf was fully emerged, with 7-10 seedlings per pot. These plants were inoculated with an aqueous spore suspension of Septoria tritici either prior to or after fungicide treatments. After inoculation the plants were kept in 100% relative humidity (one day in a dark dew chamber followed by two to three days in a lighted dew chamber at 20° C.) to permit spores to germinate and infect the leaf. The plants were then transferred to a greenhouse set at 20° C. for disease to develop. When disease symptoms were fully expressed on the 1st leaves of untreated plants, infection levels were assessed on a scale of 0 to 100 percent disease severity. Percent disease control was calculated using the ratio of disease severity on treated plants relative to untreated plants. Evaluation of Fungicidal Activity: Apple Scab (Venturia Inaequalis; Bayer Code […]) Apple seedlings (variety McIntosh) were grown in soil-less Metro mix, with one plant per pot. Seedlings with two expanding young leaves at the top (older leaves at bottom of the plants were trimmed) were used in the test. Plants were inoculated with a spore suspension of Venturia inaequalis 24 hr after fungicide treatment and kept in a 22° C. dew chamber with 100% RH for 48 hr, and then moved to a greenhouse set at 20° C. for disease to develop. Fungicide formulation, application and disease assessment on the sprayed leaves followed the procedures as described in the Example A.

In experiment [4] the test system is Erysiphe cichoracearum. Kind of experiment: Powdery mildew of cucumber (ERYSCI) fungicidal activity. Particulars: Golovinomyces cichoracearum, 24 h, 1 Day Protectant, read-out: Disease Control ERYSCI 1DP. Here is the method:
Technical grades of materials were dissolved in acetone, which were then mixed with nine volumes of water containing 110 ppm Triton X-100. The fungicide solutions were applied onto wheat seedlings using an automated booth sprayer to run-off. All sprayed plants were allowed to air dry prior to further handling. Wheat plants (variety Yuma) were grown from seed in a greenhouse in 50% mineral soil/50% soil-less Metro mix until the first leaf was fully emerged, with 7-10 seedlings per pot. These plants were inoculated with an aqueous spore suspension of Septoria tritici either prior to or after fungicide treatments. After inoculation the plants were kept in 100% relative humidity (one day in a dark dew chamber followed by two to three days in a lighted dew chamber at 20° C.) to permit spores to germinate and infect the leaf. The plants were then transferred to a greenhouse set at 20° C. for disease to develop. When disease symptoms were fully expressed on the 1st leaves of untreated plants, infection levels were assessed on a scale of 0 to 100 percent disease severity. Percent disease control was calculated using the ratio of disease severity on treated plants relative to untreated plants. Evaluation of Fungicidal Activity: Powdery Mildew of Cucumber (Erysiphe cichoracearum; Bayer Code […]) Cucumber seedlings (variety Bush Pickle) were grown in soil-less Metro mix, with one plant per pot, and used in the test when 12 to 14 days old. Plants were inoculated with a spore suspension 24 hr following fungicide treatments. After inoculation the plants remained in the greenhouse set at 20° C. until disease was fully expressed. Fungicide formulation, application and disease assessment on the sprayed leaves followed the procedures as described in the Example A.

Experiment [5] has as its system Magnaporthe grisea; Anamorph: Pyricularia oryzae. As to the kind of experiment: whole plant or invertebrate. The settings on record: 24 h, read-out: Disease Control PYRIOR 1DP.
Setting [6] is: 24 h, 1 Day Protectant, read-out: Disease Control SEPTTR 1 DP.
The mark [7] stands for this setting: 72 h, 3 Day Curative, read-out: Disease Control SEPTTR 3 DC.
Setting [8] is: 24 h, 1 Day Protectant, read-out: Disease Control PUCCRT 1 DP.
[9] abbreviates: 72 h, 3 Day Curative, read-out: Disease Control PUCCRT 3 DC.

Each structure is given as a SMILES string. Like-named read-outs stand apart in the source and are kept apart here.

Consider `COc1ccnc(C(=O)N[C@H]2COC[C@H](Cc3ccccc3)[C@@H](OCCCc3ccccc3)[C@H](C)OC2=O)c1OCOC(C)=O` [Compound 34], for which the pest or weed control at 100 ppm in experiment [1] (setting [6]) was in the range of 80 to 100%; in experiment [1] (setting [7]), 80 to 100%; in experiment [2] (setting [8]) it was 80 to 100%; in experiment [2] (setting [9]) it was 80 to 100%; in experiment [3] it was 80 to 100%; in experiment [4] it was 0 to 80%. In experiment [5], the pest or weed control at 100 ppm lay in the range of 80 to 100%.
`COC(=O)/C=C/O[C@@H]1[C@@H](Cc2ccccc2)COC[C@H](NC(=O)c2nccc(OC)c2OCOC(C)=O)C(=O)O[C@H]1C` [Compound 36]: the pest or weed control at 100 ppm was in the range of 80 to 100% in experiment [1] (setting [6]); 80 to 100% in experiment [1] (setting [7]); 80 to 100% in experiment [2] (setting [8]); 80 to 100% in experiment [2] (setting [9]); 0 to 80% in experiment [3]; 0 to 80% in experiment [4]. For the same molecule, the pest or weed control at 100 ppm in experiment [5] was in the range of 80 to 100%.
Consider `COc1ccnc(C(=O)N[C@H]2COC[C@H](Cc3ccccc3)[C@@H](OC(=O)C3CC3)[C@H](C)OC2=O)c1OCOC(C)=O` [Compound 38], for which the pest or weed control at 100 ppm was in the range of 80 to 100% in experiment [1] (setting [6]); 80 to 100% in experiment [1] (setting [7]); 80 to 100% in experiment [2] (setting [8]); 80 to 100% in experiment [2] (setting [9]); 0 to 80% in experiment [3]; 0 to 80% in experiment [4]. Moreover, in experiment [5], the pest or weed control at 100 ppm is 80 to 100%.
Regarding `COc1ccnc(C(=O)N[C@H]2COC[C@H](Cc3ccccc3)[C@@H](OC)[C@H](C)OC2=O)c1OCOC(C)=O` [Compound 39], the pest or weed control at 100 ppm lay within 80 to 100% in experiment [1] (setting [6]); 80 to 100% in experiment [1] (setting [7]); 80 to 100% in experiment [2] (setting [8]); 80 to 100% in experiment [2] (setting [9]); 0 to 80% in experiment [3]; 0 to 80% in experiment [4]. In experiment [5], the pest or weed control at 100 ppm lay within 80 to 100%.
With `COc1ccnc(C(=O)N[C@H]2COC[C@H](Cc3ccccc3)[C@@H](OCC(F)F)[C@H](C)OC2=O)c1OCOC(C)=O` [Compound 44], the pest or weed control at 100 ppm lay in the range of 80 to 100% in experiment [1] (setting [6]); 80 to 100% in experiment [1] (setting [7]); 80 to 100% in experiment [2] (setting [8]); 80 to 100% in experiment [2] (setting [9]); 0 to 80% in experiment [3]; 0 to 80% in experiment [4]. For the same molecule, in experiment [5], the pest or weed control at 100 ppm fell in the range of 80 to 100%.
As for `COc1ccnc(C(=O)N[C@H]2COC[C@H](Cc3ccccc3)[C@@H](OCCC(C)OC)[C@H](C)OC2=O)c1OCOC(C)=O` (some centres unmarked) [Compound 46], the pest or weed control at 100 ppm in experiment [1] (setting [6]), in experiment [1] (setting [7]), in experiment [2] (setting [8]), in experiment [2] (setting [9]), in experiment [3] and in experiment [4] was 80 to 100% each time. Besides, the pest or weed control at 100 ppm in experiment [5] is 80 to 100%.
In the case of `COc1ccnc(C(=O)N[C@H]2COC[C@H](Cc3ccccc3)[C@@H](OC3CCCC3)[C@H](C)OC2=O)c1OC(C)=O` [Compound 107], the pest or weed control at 100 ppm is 80 to 100% in experiment [1] (setting [6]); 80 to 100% in experiment [1] (setting [7]); 80 to 100% in experiment [2] (setting [8]); 80 to 100% in experiment [2] (setting [9]); 0 to 80% in experiment [3]; 0 to 80% in experiment [4]. For the same molecule, in experiment [5], the pest or weed control at 100 ppm lay within 80 to 100%.
As for `COc1ccnc(C(=O)N[C@H]2COC[C@H](Cc3ccccc3)[C@@H](OC3CCCC3)[C@H](C)OC2=O)c1OCOC(=O)C(C)C` [Compound 108], the pest or weed control at 100 ppm in experiment [1] (setting [6]) lay in the range of 80 to 100%; in experiment [1] (setting [7]), 0 to 80%; in experiment [2] (setting [8]) it was 80 to 100%; in experiment [2] (setting [9]), 80 to 100%; in experiment [3], 80 to 100%; in experiment [4] it was 0 to 80%. Besides, the pest or weed control at 100 ppm in experiment [5] is 80 to 100%.

The values above are taken from patent US8835462B2, “Macrocyclic picolinamides as fungicides” (Dow AgroSciences LLC, priority 2012, dated 2014).
